Legend:
Lck = Lck (Homo sapiens, UniProt P06239); experiment: Kinase profiling; type: biochemical
IKK beta = target: T1, IKK beta (Homo sapiens, UniProt O14920); experiment: Kinase profiling; type: biochemical
T1 sequence (O14920 1-756): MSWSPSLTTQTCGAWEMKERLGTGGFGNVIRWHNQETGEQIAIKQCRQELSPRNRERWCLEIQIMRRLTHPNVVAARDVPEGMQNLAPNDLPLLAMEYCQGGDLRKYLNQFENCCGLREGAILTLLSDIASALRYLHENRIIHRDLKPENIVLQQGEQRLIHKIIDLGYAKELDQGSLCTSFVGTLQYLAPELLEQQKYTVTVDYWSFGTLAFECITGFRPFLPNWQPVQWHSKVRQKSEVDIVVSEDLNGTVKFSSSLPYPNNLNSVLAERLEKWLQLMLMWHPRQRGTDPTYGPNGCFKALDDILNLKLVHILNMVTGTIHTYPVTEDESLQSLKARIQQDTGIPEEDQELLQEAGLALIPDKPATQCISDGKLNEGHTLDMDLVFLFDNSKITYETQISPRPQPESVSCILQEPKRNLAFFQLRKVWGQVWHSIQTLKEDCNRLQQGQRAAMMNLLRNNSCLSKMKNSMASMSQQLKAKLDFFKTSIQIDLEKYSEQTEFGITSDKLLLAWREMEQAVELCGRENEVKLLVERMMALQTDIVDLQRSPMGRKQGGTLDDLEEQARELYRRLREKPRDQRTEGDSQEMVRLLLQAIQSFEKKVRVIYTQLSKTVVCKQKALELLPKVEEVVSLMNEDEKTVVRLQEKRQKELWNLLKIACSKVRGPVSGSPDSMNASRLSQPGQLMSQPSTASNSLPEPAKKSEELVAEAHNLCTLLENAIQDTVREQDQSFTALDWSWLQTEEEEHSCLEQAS

[1] = test system: Bone-marrow-derived macrophages; experiment: TLR signalling immunoblots (MAPKs, MSK1/2, CREB, IKKs, TBK1); type: cell-based, mouse; details: for Kinetics of activation of MAPKs including ERK1/2 and p38α/β: 3 μM bosutinib or 0.3 μM dasatinib, LPS or Pam3CSK4; for TLR-stimulated phosphorylation of ERK1/2, JNK1/2, p38α/β MAPKs, MSK1/2, IKKα/β, TBK1 and their direct substrates: 3 μM bosutinib, 0.3 μM dasatinib or 0.5 μM HG-9-91-01
Experimental: (§1) RAW264.7 cells were cultured in DMEM containing 10% FBS, 2 mM glutamine and penicillin and streptomycin. […] Cells were treated for 1 h with or without inhibitors and then stimulated for up to 24 h with either 1 μg/ml Pam3CSK4 or 100 ng/ml LPS.
(§2) Cells were extracted in lysis buffer [50 mM Tris/HCl, pH 7.4, 1 mM EDTA, 1 mM EGTA, 50 mM NaF, 5 mM sodium pyrophosphate, 10 mM sodium β-glycerol 1-phosphate, 1 mM DTT, 1 mM sodium orthovanadate, 0.27 M sucrose, 1% (v/v) Triton X-100, 1 μg/ml aprotinin, 1 μg/ml leupeptin and 1 mM PMSF]. Cell extracts were clarified by centrifugation and protein concentrations were determined using the Bradford assay. To immunoprecipitate endogenous CRTC3, 1 mg of cell extract was incubated with 5 μg of anti-CRTC3 [13] covalently cross-linked on to Protein G–Sepharose. Immune complexes were washed three times with lysis buffer, eluted in 1% SDS and separated by SDS/PAGE. To detect proteins in cell lysates, 20 μg of protein extract was separated by SDS/PAGE. After transfer to PVDF membranes, proteins were detected by immunoblotting and visualized by treating the blots with ECL (GE Healthcare) followed by autoradiography.

DDR2 = target: T2, DDR2 (Homo sapiens, UniProt Q16832); experiment: Kinase profiling; type: biochemical
T2 sequence (Q16832 22-855): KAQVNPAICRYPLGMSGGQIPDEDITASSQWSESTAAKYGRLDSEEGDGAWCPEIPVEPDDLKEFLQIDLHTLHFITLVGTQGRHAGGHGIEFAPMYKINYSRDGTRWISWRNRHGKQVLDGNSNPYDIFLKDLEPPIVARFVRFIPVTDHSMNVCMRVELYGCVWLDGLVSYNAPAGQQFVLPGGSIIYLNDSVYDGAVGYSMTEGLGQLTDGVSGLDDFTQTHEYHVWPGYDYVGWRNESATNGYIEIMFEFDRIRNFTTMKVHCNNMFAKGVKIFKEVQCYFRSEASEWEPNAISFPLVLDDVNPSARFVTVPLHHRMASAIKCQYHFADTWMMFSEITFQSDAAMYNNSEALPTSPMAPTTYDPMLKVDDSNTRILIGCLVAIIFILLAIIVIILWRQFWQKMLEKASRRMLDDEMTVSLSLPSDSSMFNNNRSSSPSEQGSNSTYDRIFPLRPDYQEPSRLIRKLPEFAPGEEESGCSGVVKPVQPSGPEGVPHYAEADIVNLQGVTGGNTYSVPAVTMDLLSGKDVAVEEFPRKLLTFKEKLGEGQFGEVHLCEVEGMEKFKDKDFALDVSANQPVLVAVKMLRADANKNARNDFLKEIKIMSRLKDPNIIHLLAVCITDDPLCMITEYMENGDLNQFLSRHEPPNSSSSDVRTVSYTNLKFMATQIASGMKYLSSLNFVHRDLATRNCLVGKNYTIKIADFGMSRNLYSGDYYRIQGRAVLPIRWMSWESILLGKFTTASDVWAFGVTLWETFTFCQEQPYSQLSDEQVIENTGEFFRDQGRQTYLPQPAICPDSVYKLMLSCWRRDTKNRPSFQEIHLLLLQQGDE

BRK = BRK (Homo sapiens, UniProt Q13882); experiment: Kinase profiling; type: biochemical
Chain of BRK (Q13882 whole entry): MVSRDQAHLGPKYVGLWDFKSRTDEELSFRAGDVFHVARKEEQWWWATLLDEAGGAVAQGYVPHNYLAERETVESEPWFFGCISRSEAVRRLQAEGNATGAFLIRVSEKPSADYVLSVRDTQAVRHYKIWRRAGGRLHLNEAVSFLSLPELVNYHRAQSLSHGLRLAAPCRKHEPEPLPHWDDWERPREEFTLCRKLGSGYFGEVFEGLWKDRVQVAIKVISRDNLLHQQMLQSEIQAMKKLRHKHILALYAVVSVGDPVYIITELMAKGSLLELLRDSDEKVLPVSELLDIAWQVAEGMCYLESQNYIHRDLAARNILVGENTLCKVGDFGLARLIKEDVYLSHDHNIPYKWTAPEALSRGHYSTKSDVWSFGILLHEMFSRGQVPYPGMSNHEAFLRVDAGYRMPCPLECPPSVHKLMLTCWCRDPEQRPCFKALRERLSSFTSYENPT

Src = Src (Homo sapiens, UniProt P12931); experiment: Kinase profiling; type: biochemical
Chain of Src (P12931 whole entry): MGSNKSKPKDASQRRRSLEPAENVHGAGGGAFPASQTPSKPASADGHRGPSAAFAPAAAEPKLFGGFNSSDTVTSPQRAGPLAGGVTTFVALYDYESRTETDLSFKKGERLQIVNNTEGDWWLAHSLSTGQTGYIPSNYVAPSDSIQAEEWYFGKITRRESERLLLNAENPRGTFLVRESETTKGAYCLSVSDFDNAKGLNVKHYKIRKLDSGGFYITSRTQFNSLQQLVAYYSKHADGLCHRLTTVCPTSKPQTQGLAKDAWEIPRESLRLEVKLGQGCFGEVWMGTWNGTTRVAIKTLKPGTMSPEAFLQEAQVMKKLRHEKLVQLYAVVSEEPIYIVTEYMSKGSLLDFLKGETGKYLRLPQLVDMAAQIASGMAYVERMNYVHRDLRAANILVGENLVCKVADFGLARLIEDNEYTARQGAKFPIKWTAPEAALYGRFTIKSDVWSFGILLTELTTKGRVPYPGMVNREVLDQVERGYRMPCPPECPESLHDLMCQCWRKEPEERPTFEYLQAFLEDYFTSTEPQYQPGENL

CRTC3 = CRTC3 phosphorylation (immunoprecipitation, immunoblot); type: cell-based; details: RAW264.7 macrophages, 1 h
Experimental: as §1, §2

PKD1 = PKD1 (Homo sapiens, UniProt Q15139); experiment: Kinase profiling; type: biochemical
Chain of PKD1 (Q15139 whole entry): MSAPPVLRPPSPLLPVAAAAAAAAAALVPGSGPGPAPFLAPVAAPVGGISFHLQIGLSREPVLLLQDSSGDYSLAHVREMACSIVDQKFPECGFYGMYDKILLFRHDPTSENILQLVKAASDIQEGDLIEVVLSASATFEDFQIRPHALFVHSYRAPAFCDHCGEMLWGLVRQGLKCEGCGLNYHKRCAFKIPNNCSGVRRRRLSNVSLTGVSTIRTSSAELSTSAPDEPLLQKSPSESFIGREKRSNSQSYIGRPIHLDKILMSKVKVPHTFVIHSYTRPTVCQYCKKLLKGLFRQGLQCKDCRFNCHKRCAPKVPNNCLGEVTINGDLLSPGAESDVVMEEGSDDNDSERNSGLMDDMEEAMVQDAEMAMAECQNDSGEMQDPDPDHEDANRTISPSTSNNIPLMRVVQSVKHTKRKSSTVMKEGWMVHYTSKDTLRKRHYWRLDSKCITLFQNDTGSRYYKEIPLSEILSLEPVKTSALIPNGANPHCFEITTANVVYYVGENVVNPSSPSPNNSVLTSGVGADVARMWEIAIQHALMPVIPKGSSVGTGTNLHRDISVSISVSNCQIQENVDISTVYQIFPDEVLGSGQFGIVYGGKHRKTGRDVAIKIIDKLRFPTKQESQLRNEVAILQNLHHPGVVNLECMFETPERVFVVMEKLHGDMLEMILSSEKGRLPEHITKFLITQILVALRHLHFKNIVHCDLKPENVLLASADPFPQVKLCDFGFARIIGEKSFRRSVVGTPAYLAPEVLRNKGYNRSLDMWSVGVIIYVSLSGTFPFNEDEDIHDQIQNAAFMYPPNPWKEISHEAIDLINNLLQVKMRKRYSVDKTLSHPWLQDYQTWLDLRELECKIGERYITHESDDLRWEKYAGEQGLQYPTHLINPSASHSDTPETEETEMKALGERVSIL

SmMLCK = SmMLCK (Homo sapiens, UniProt Q15746); experiment: Kinase profiling; type: biochemical
Chain of SmMLCK (Q15746 923-1914): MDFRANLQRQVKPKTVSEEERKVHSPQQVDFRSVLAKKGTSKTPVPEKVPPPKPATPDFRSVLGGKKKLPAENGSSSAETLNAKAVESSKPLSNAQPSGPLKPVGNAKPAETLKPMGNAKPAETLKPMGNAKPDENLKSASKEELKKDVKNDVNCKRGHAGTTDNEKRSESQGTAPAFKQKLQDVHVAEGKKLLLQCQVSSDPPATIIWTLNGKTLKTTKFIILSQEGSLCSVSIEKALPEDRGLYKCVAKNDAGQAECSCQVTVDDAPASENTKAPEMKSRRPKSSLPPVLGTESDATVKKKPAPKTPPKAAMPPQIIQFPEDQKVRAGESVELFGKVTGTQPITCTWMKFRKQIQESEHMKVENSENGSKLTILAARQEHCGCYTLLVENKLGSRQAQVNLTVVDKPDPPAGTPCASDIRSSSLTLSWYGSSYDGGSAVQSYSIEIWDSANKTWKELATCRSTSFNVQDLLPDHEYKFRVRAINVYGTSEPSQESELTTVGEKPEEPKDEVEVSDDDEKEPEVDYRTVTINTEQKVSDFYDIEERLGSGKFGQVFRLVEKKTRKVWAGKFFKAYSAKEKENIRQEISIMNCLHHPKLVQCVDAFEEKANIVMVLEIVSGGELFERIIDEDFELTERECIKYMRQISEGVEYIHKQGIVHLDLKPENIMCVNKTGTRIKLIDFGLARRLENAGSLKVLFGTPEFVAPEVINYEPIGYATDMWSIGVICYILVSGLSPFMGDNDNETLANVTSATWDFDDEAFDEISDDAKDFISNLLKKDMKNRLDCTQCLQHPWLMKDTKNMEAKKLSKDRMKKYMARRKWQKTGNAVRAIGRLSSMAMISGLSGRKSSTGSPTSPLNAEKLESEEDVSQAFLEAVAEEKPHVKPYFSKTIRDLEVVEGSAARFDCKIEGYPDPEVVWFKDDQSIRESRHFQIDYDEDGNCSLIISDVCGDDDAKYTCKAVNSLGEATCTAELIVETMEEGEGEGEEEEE

TBK1 = target: T3, TBK1 (Homo sapiens, UniProt Q9UHD2); experiment: Kinase profiling; type: biochemical
T3 sequence (Q9UHD2 1-729): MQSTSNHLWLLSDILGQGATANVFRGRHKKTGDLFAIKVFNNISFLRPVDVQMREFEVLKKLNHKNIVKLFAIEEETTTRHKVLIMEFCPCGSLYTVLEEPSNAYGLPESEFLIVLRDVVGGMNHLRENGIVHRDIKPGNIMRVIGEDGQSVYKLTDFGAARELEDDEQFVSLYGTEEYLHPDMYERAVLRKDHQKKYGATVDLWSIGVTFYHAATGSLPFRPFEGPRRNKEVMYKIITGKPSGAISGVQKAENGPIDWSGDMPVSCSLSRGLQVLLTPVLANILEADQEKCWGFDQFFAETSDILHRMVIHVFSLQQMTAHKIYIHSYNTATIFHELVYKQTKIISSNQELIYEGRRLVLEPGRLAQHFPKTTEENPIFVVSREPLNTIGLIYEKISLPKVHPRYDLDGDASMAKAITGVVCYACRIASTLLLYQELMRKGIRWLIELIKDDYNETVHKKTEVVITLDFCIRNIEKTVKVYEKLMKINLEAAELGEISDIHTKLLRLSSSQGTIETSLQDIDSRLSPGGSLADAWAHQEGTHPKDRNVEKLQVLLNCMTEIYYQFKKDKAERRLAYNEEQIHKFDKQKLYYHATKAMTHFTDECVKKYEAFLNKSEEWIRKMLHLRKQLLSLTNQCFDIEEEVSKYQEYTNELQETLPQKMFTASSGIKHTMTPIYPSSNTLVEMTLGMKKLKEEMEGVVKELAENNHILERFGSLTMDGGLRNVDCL

TGFBR1 = TGFBR1 (Homo sapiens, UniProt P36897); experiment: Kinase profiling; type: biochemical
Chain of TGFBR1 (P36897 34-503): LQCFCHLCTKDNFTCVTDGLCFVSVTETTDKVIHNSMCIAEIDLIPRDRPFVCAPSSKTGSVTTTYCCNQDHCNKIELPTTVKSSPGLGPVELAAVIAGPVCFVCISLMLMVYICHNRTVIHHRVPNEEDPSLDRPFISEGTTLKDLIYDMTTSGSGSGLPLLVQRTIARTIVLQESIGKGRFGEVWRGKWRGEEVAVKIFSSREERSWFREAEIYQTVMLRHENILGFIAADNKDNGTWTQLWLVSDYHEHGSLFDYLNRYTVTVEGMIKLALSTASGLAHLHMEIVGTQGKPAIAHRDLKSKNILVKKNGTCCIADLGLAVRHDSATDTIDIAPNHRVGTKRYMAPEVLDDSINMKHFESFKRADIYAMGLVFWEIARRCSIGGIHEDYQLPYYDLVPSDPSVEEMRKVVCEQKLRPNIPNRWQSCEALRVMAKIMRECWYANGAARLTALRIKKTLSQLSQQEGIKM

Chain of Lck (P06239 whole entry): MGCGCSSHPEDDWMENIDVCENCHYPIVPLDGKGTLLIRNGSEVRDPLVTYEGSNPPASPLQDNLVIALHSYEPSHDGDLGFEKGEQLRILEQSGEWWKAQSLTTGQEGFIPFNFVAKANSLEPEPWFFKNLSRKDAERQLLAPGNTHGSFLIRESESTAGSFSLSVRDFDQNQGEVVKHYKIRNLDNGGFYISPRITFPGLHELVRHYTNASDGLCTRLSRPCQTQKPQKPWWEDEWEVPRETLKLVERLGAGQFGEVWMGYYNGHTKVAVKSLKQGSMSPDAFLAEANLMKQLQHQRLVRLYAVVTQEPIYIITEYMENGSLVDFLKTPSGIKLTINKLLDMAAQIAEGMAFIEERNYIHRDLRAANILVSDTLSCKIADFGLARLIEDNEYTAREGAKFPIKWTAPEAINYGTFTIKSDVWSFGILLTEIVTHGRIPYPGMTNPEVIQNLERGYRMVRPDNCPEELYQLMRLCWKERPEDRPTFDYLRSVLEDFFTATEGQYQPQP

Row | SMILES | remaining activity at 0.1 µM (Lck; 0.1 µM) | remaining activity at 1 µM (Lck; 1 µM) | remaining activity at 0.1 µM (IKK beta) | Kinetics of activation of MAPKs including ERK1/2 and p38α/β [1] | TLR-stimulated phosphorylation of ERK1/2, JNK1/2, p38α/β MAPKs, MSK1/2, IKKα/β, TBK1 and their direct substrates [1] | remaining activity at 0.1 µM (DDR2) | remaining activity at 1 µM (DDR2) | remaining activity at 0.1 µM (BRK; 0.1 µM) | remaining activity at 1 µM (BRK; 1 µM) | remaining activity at 0.1 µM (Src; 0.1 µM) | remaining activity at 1 µM (Src; 1 µM) | Phosphorylation of CRTC3 at Ser162 and Ser370 (CRTC3) | remaining activity at 0.1 µM (PKD1) | remaining activity at 0.1 µM (SmMLCK) | remaining activity at 1 µM (SmMLCK) | remaining activity at 0.1 µM (TBK1) | remaining activity at 1 µM (TBK1) | remaining activity at 0.1 µM (TGFBR1; 0.1 µM) | remaining activity at 1 µM (TGFBR1; 1 µM) | remaining activity at 1 µM (IKK beta; 1 µM)
1 | COc1cc(Nc2c(C#N)cnc3cc(OCCCN4CCN(C)CC4)c(OC)cc23)c(Cl)cc1Cl [Bosutinib, bosutinib] | 1% | 1% | 92 ± 15% | no effect | occurred normally | 22 ± 1% | 2% | 88 ± 11% | 48% | 1% | 1% | dephosphorylation | 89 ± 2% | 88 ± 2% | 27 ± 1% | 75 ± 1% | 29 ± 1% | 87 ± 14% | 101 ± 6% | 
2 | Cc1nc(Nc2ncc(C(=O)Nc3c(C)cccc3Cl)s2)cc(N2CCN(CCO)CC2)n1 [Dasatinib] |  |  | 97 ± 21% | no effect | occurred normally | 1 ± 1% | 0% |  |  |  |  | dephosphorylation |  | 111 ± 4% | 111 ± 7% | 100 ± 1% | 97 ± 10% |  |  | 99 ± 9%
